Reference: paper PMC4684357, “Comparative Evaluation of the Antimicrobial Activity of Different Antimicrobial Peptides against a Range of Pathogenic Bacteria” (PLoS ONE, 2015)
Where two headings read alike, the source gives them in different places. Residues, ends and D or L forms follow the SMILES beside them.

Experiments:
[1] = test system: BW25113 wild-type; test: MIC in LPS backgrounds; assay type: cell-based, Escherichia coli; details: E. coli BW25113 wild-type; CLSI; triplicates
Excerpt: (§1) The Yersinia ruckeri strain was kindly provided by Prof. Kurt Buchmann, University of Copenhagen, Faculty of Health and Medical Sciences, and the Flavobacterium psychrophilum strain was kindly provided by Prof. Inger Dalsgaard, DTU, Denmark. BW25113 is the Escherichia coli wild-type strain, a derivative of the F^-,λ^- E. coli K12 strain BD792 which was used in generating the KEIO collection. E. coli ATCC25922 is a clinical isolate, serotype O6 and is often used as control strain in antimicrobial susceptibility testing. All strains were grown in Mueller-Hinton-II medium, except L. monocytogenes which was grown in BHI medium and F. psychrophilum which was grown in TYES medium (Tryptone yeast extract plus salts). Incubation took place aerobically at 37°C, except for Y. ruckeri and A. salmonicida, which were grown aerobically at RT (20°C), C. jejuni NCTC11168 which was grown under microaerophilic conditions at 42°C and F. psychrophilum 1947 which was grown under aerobic conditions at 15°C. All plates were incubated for 18–20 hours, except the F. psychrophilum plates, which were incubated for 72 hours.
(§2) The minimum inhibitory concentrations (MICs) of the AMPs were measured in 96-well microtiter plates according to the Clinical and Laboratory Standards Institute (CLSI, formerly National Committee for Clinical Laboratory Standards [NCCLS]). Briefly, liquid Mueller-Hinton-II medium containing increasing concentrations of AMPs is inoculated with a defined number of cells (approx. 10^5 CFUs/ml) in 96-well microtiter plates (polypropylene), whereas each plate also includes a positive growth control and a negative control (sterile control). After incubation, the MIC is determined by the lowest concentration showing no visible growth. All plates were incubated for 18–20 hours, except the F. psychrophilum plates which were incubated for 72 hours.

[2] = test system: ATCC25922 ΔrfaG; assay type: cell-based, Escherichia coli; details: E. coli ATCC25922 ΔrfaG; CLSI; triplicates
Excerpt: as §1, §2
(§3) Construction of knock-out mutants of E. coli ATCC25922 were constructed using the λ-Red recombinase gene replacement system. Primers for amplification of the npt gene of pKD4 are listed in S1 Table. The correct double-crossover and recombination event was confirmed by primers listed in S1 Table and by sequencing. Finally, the kanamycin cassette was removed.

[3] = test system: ATCC25922 ΔrfaF; assay type: cell-based, Escherichia coli; details: E. coli ATCC25922 ΔrfaF; CLSI; triplicates
Excerpt: as §1, §2, §3

[4] = test system: ATCC25922 ΔrfaE; assay type: cell-based, Escherichia coli; details: E. coli ATCC25922 ΔrfaE; CLSI; triplicates
Excerpt: as §1, §2, §3

[5] = test system: ATCC25922 ΔrfaC; assay type: cell-based, Escherichia coli; details: E. coli ATCC25922 ΔrfaC; CLSI; triplicates
Excerpt: as §1, §2, §3

[6] = test system: E. coli ATCC25922
Method: as §2, with “hours. […]” for “hours.”

[7] = test system: BW25113 ΔrfaG; assay type: cell-based, Escherichia coli; details: E. coli BW25113 ΔrfaG; CLSI; triplicates
Excerpt: as §1, §2

[8] = test system: BW25113 ΔrfaC; assay type: cell-based, Escherichia coli; details: E. coli BW25113 ΔrfaC; CLSI; triplicates
Excerpt: as §1, §2

[9] = test system: BW25113 ΔrfaF; assay type: cell-based, Escherichia coli; details: E. coli BW25113 ΔrfaF; CLSI; triplicates
Excerpt: as §1, §2

[10] = test system: BW25113 ΔrfaE; assay type: cell-based, Escherichia coli; details: E. coli BW25113 ΔrfaE; CLSI; triplicates
Excerpt: as §1, §2

[11] = test system: E. coli ATCC25922; assay type: cell-based, Escherichia coli
Excerpt: as §1
All plates were incubated for 18–20 hours, except the F. psychrophilum plates which were incubated for 72 hours.
All the MIC measurements were carried out in duplicate.

[12] = biological target: T1, proteinase K (Parengyodontium album, UniProt P06873); test: Protease stability: MIC after incubation with proteinase K; assay type: in vitro ADME; details: for Antimicrobial Activity MIC: proteinase K, protease:AMP 1:100 (w/w), 100 mM Tris-HCl pH 7.5, 37°C, test strain E. coli ATCC25922, triplicates
T1 construct: purchased NEB P8107S
T1 sequence (P06873 106-384): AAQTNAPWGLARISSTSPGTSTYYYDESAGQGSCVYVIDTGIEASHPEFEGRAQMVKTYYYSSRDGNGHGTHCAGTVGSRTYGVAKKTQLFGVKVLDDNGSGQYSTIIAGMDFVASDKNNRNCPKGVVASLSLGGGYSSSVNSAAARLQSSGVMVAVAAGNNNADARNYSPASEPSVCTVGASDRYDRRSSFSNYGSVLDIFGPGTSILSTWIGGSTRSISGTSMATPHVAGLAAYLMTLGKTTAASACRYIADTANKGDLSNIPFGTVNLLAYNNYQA
Method: as §2
(§4) AMPs were heated at 70°C or 90° for 5, 15 or 30 minutes. An untreated control, which was kept at RT, was used as a control. After incubation at 70°C or 90°C, the minimum inhibitory concentrations (MICs) of the peptides were measured in 96-well microtiter plates according the Clinical and Laboratory Standards Institute (CLSI, formerly National Committee for Clinical Laboratory Standards [NCCLS]) […] After incubation, the samples were cooked for 10 minutes at 90°C to inactivate the protease. Afterwards, the antimicrobial activity was determined by measuring the minimal inhibitory concentration (see Antimicrobial susceptibility testing)). E. coli ATCC25922 was used as a test strain.

[13] = biological target: T2, trypsin (Bos taurus, UniProt P00760); test: Protease stability: MIC after incubation with trypsin; assay type: in vitro ADME; details: for Antimicrobial Activity MIC: trypsin, protease:AMP 1:100 (w/w), trypsin-ultra reaction buffer, 37°C, test strain E. coli ATCC25922, triplicates
T2 construct: purchased NEB P8101
T2 sequence (P00760 24-246): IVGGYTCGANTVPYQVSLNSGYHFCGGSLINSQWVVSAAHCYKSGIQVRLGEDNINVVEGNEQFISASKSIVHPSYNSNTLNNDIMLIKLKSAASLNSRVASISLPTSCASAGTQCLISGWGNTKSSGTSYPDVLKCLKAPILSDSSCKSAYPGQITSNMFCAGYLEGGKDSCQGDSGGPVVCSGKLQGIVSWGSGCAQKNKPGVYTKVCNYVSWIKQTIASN
Method: as §2, §4

Row | Compound | Antimicrobial Activity MIC [1] [µg/mL] | Antimicrobial Activity MIC [2] [µg/mL] | Antimicrobial Activity MIC [3] [µg/mL] | Antimicrobial Activity MIC [4] [µg/mL] | Antimicrobial Activity MIC [5] [µg/mL] | Antimicrobial Activity MIC [6] [µg/mL] | Antimicrobial Activity MIC [7] [µg/mL] | Antimicrobial Activity MIC [8] [µg/mL] | Antimicrobial Activity MIC [9] [µg/mL] | Antimicrobial Activity MIC [10] [µg/mL] | Antimicrobial Activity MIC [11] [µg/mL] | also measured
1 | CC[C@H](C)[C@H](NC(=O)[C@H](CC(C)C)NC(=O)[C@H](CCCCN)NC(=O)[C@H](CC(C)C)NC(=O)[C@H](CC(C)C)NC(=O)[C@H](CCCCN)NC(=O)[C@H](CCCNC(=N)N)NC(=O)[C@H](Cc1ccccc1)NC(=O)[C@H](CC(C)C)NC(=O)[C@H](CCCCN)NC(=O)[C@H](CCCNC(=N)N)NC(=O)[C@H](CC(C)C)NC(=O)[C@@H](N)CCCCN)C(=O)N[C@@H](CCCNC(=N)N)C(=O)N[C@@H](CCCCN)C(=O)N[C@@H](CC(C)C)C(=O)N[C@@H](CC(C)C)C(=O)N[C@@H](CCCNC(=N)N)C(=O)O [Cap11-1-18m^2] (H-KLRKLFRKLLKLIRKLLR-OH) | 16 | 16 | 16 | 16 | 16 | 32 | 8 | 8 | 8 | 8 | 32 | –
2 | CC[C@H](C)[C@H](NC(=O)[C@H](CCCCN)NC(=O)[C@H](CCCCN)NC(=O)[C@H](CC(C)C)NC(=O)[C@H](CCCCN)NC(=O)[C@H](CCC(=O)O)NC(=O)[C@H](CCCCN)NC(=O)[C@@H](NC(=O)[C@H](CCCCN)NC(=O)[C@H](CC(N)=O)NC(=O)[C@H](CCCNC(=N)N)NC(=O)[C@H](Cc1ccccc1)NC(=O)[C@H](CCCCN)NC(=O)[C@H](CCCNC(=N)N)NC(=O)[C@H](CC(C)C)NC(=O)[C@H](CCCNC(=N)N)NC(=O)[C@H](CCCCN)NC(=O)[C@H](CCCNC(=N)N)NC(=O)[C@H](CC(C)C)NC(=O)CN)[C@@H](C)CC)C(=O)NCC(=O)N[C@@H](CCC(N)=O)C(=O)N[C@@H](CCCCN)C(=O)N[C@H](C(=O)N[C@@H](CCC(N)=O)C(=O)NCC(=O)N[C@@H](CC(C)C)C(=O)N[C@@H](CC(C)C)C(=O)N1CCC[C@H]1C(=O)N[C@@H](CCCCN)C(=O)N[C@@H](CC(C)C)C(=O)N[C@@H](C)C(=O)N1CCC[C@H]1C(=O)N[C@@H](CCCNC(=N)N)C(=O)N[C@H](C(=O)N[C@@H](CC(=O)O)C(=O)N[C@@H](Cc1ccc(O)cc1)C(=O)O)[C@@H](C)O)[C@@H](C)CC [Cap18] (H-GLRKRLRKFRNKIKEKLKKIGQKIQGLLPKLAPRTDY-OH) | 4 to 8 | 2 | 2 | 2 | 2 | 8 | 4 | 4 | 4 | 4 | 4 | –
3 | CNC(C)C1CCC(N)C(OC2C(N)CC(N)C(OC3OCC(C)(O)C(NC)C3O)C2O)O1 (stereo not shown) [Gentamicin] | – | – | – | – | – | – | – | – | – | – | – | antimicrobial activity after protease (in words) ([12]; proteinase K for 30 minutes, control antibiotic): retained its full antimicrobial activity; Antimicrobial Activity MIC ([12]; 0 min): 1 µg/mL; Antimicrobial Activity MIC ([12]; 0.5 min, then 10 min 90°C): 1 µg/mL; Antimicrobial Activity MIC ([12]; 2 min, then 10 min 90°C): 1 µg/mL; Antimicrobial Activity MIC ([12]; 5 min, then 10 min 90°C): 1 µg/mL; Antimicrobial Activity MIC ([12]; 15 min, then 10 min 90°C): 1 µg/mL; Antimicrobial Activity MIC ([12]; 30 min, then 10 min 90°C): 1 µg/mL; antimicrobial activity after protease (in words) ([13]; trypsin for 30 minutes, control antibiotic): retained its full antimicrobial activity; Antimicrobial Activity MIC ([13]; 0 min): 1 µg/mL; Antimicrobial Activity MIC ([13]; 0.5 min, then 10 min 90°C): 1 µg/mL; Antimicrobial Activity MIC ([13]; 2 min, then 10 min 90°C): 1 µg/mL; Antimicrobial Activity MIC ([13]; 5 min, then 10 min 90°C): 1 µg/mL; Antimicrobial Activity MIC ([13]; 15 min, then 10 min 90°C): 1 µg/mL; Antimicrobial Activity MIC ([13]; 30 min, then 10 min 90°C): 1 µg/mL
4 | CC[C@H](C)[C@H](NC(=O)[C@H](CCCCN)NC(=O)[C@H](Cc1c[nH]c2ccccc12)NC(=O)[C@H](CCCNC(=N)N)NC(=O)[C@@H](N)CCCNC(=N)N)C(=O)N[C@H](C(=O)N[C@H](C(=O)N[C@H](C(=O)N[C@@H](CCCNC(=N)N)C(=O)N[C@@H](Cc1c[nH]c2ccccc12)C(=O)N[C@@H](CCCNC(=N)N)C(=O)N[C@@H](CCCNC(=N)N)C(N)=O)[C@@H](C)CC)C(C)C)C(C)C [Sub5-NH2] (H-RRWKIVVIRWRR-NH2) | 4 to 8 | 1 | 1 | 1 | 1 | – | 2 | 2 | 2 | 2 | 4 | –
